Experimental data reported in patent US8592403B2, “Diazepine and diazocane compounds as MC4 agonists” (Pfizer Limited, priority 2008, dated 2013).

What was measured:
MC4 receptor = MC4 receptor (Homo sapiens, UniProt P32245); assay: MC4 EC50 functional potency (protocol E of US2005/0176772 / WO 2005/077935); format: cell-based
Protocol: The compounds of formula (I) of the present invention have utility as MCR4 agonists in the treatment of various disease states.
MC5 and MC4 EC50 activity was determined as described by assay protocols D and E, respectively, in US2005/0176772 (pages 28-30).

MC4 receptor (MC4R) = molecular target: T1, MC4 receptor (MC4R) (Homo sapiens, UniProt P32245); assay: Nle4, D-Phe7-α-MSH inhibition at the MC4 receptor (competition binding, SPA, CHO-CRE MC4R membranes)
T1 construct: expressed in transfected cells; host or cells: CHO-CRE MC4R cells (membranes)
Text: Nle4, D-Phe7-α-MSH Inhibition at the MC4 Receptor
Nle4, D-Phe7-α-MSH is a stable analogue of melanocyte-stimulating hormone (MSH), which is an agonist at the MC4 receptor (MC4R). Compounds can be evaluated for their ability to inhibit Nle4, D-Phe7-α-MSH binding to membranes from cells expressing the MC4R using a competition binding assay versus [^125I] Nle4, D-Phe7-α-MSH.
Cells expressing the MC4R were subject to homogenisation and the membrane fragment isolated by differential centrifugation. CHO-CRE MC4R cell membranes were coupled to PVT-PEI-WGA SPA Beads type A for 2 hours, spun at 1000 RPM for 5 min and suspended to a concentration of 300 ug bead/ml (0.15 ug membrane, 15 ug bead per well). Bead/membrane mix was incubated with 0.06 nM [^125I] Nle4, D-Phe7-α-MSH and 11 half-log concentrations of competitor ligand, in duplicate, in a total volume of 50 μl buffer per well (25 mM HEPES, 1 mM MgCl2, 2.5 mM CaCl2, 1% Pluronic F68, 1 complete EDTA protease inhibitor tablet/50 ml pH7). Non-specific binding was determined by the inclusion of 100 nM SHU9119. The reaction was initiated by the addition of bead/membranes and plates were incubated at room temperature for 12 hours (the first hour on a plate shaker), after which the amount of radioactivity present was determined using a Wallac plate counter. Ki values were determined by data analysis using appropriate software.

MC3 receptor (MC3R) = molecular target: T2, MC3 receptor (MC3R) (Homo sapiens, UniProt P41968); assay: Nle4, D-Phe7-α-MSH inhibition at the MC3 receptor (competition binding, SPA, CHO-CRE MC3R membranes)
T2 construct: expressed in transfected cells; host or cells: CHO-CRE MC3R cells (membranes)
Text: Nle4, D-Phe7-α-MSH Inhibition at the MC3 Receptor
Nle4, D-Phe7-α-MSH is a stable analogue of melanocyte-stimulating hormone (MSH), which is an agonist at the MC3 receptor (MC3R). Compounds can be evaluated for their ability to inhibit Nle4, D-Phe7-α-MSH binding to membranes from cells expressing the MC3R using a competition binding assay versus [^125I] Nle4, D-Phe7-α-MSH.
Cells expressing the MC3R were subject to homogenisation and the membrane fragment isolated by differential centrifugation. CHO-CRE MC3R cell membranes were coupled to PVT-PEI-WGA SPA Beads type A for 2 hours, spun at 1000 RPM for 5 mins and suspended to a final assay concentration of 800 ug bead/ml (1.2 ug membrane, 40 ug bead per well). Bead/membrane mix was incubated with 0.06 nM [^125I] Nle4, D-Phe7-α-MSH and 11 half-log concentrations of competitor ligand, in duplicate, in a total volume of 50 μl buffer per well (25 mM HEPES, 1 mM MgCl2, 2.5 mM CaCl2, 1% Pluronic F68, 1 complete EDTA protease inhibitor tablet/50 ml pH7). Non-specific binding was determined by the inclusion of 100 nM SHU9119. The reaction was initiated by the addition of bead/membranes and plates were incubated at room temperature for 12 hours (the first hour on a plate shaker), after which the amount of radioactivity present was determined using a Wallac plate counter. Ki values were determined by data analysis using appropriate software.

CYP3A4 = molecular target: T3, CYP3A4 (Homo sapiens, UniProt P08684); assay: High density DDI 3 μM cocktail screen in human liver microsomes, midazolam probe; format: in vitro ADME; settings: human, liver microsomes, probe midazolam, read-out: % inhibition 3A4 @ 3 μM
T3 construct: utilizes human liver microsomes together with isoform-specific clinical drug probes; from tissue; host or cells: human liver microsomes
Protocol: High Density Drug-Drug Interactions (DDI) 3 μM Cocktail Screen
A drug interaction is a situation in which a substance affects the activity of another drug, i.e. the effects are increased or decreased, or together they produce a new effect that neither produces on its own. Drug interactions may be the result of various processes but a relatively common one is where one drug affects the pharmacokinetics of another by inhibiting the cytochrome P450 that metabolises it. Because of the importance of these phenomena, assessment of the DDI potential for new chemical entities (NCEs) is considered important early on in the drug discovery process.
The DDI cocktail screen in human liver microsomes (HLM) is run in a fully automated fashion and the aim of the screen is to provide a single-point assessment of the DDI potential of new chemical entity (NCE; tested at […]) against the 4 primary cytochrome P450 enzymes, 1A2, 2D6, 2C9 and 3A4.
The substrate cocktail approach for P450 DDI utilizes human liver microsomes together with isoform-specific clinical drug probes and permits the simultaneous measurement of the inhibition of P450 1A2, 2C9, 2D6 & 3A4 activities in a single incubation. This is run in high throughput with simultaneous detection of metabolites by LC-MS/MS. This method has been thoroughly tested and evaluated using standard compounds.
Appearance of the metabolite of each substrate is measured over time in the presence and absence of the NCE (test compound/inhibitor) at a concentration of 3 μM. The compounds are assessed for their inhibitory potential as a percentage value and interpreted using the following scheme.

[1] = In vitro metabolism rate determination, human liver microsome (HLM) assay; format: in vitro ADME; settings: human, liver microsomes, read-out: HLM: Clint, app
Text: In Vitro Metabolism Rate Determination (Human Liver Microsome (HLM); Rat Liver Microsome (RLM) Assay)
Many drugs are metabolised by the cytochrome P450 mono-oxygenase system. This enzyme is found in high concentrations in the liver and is bound to the endoplasmic reticulum of the hepatocyte. The enzyme system can be obtained in semi-purified state by the preparation of the hepatic microsomal fractions. Determining a compound's in vitro half-life in such a system provides a useful indicator of metabolic stability.
Methodology for In Vitro Rate Determination Using Hepatic & Supermix Microsomes
The method outlined below is for a total incubation volume of 1.5 ml.
1. The following mixture is prepared in a test tube:
2. Defrost microsomes at room temperature and add sufficient microsomes to give a final concentration of 0.5 nmol cytochrome P450/ml of incubation e.g. for a 1.5 ml incubation, the volume of microsomes to be added is:
3. Add sufficient MilliQ water to give a total incubation volume of 1.425 ml.
6. Add substrate to the incubation. The substrate should be at an initial concentration of 1 μM. The volume of substrate required in the remaining 1.162.5 ml incubation is calculated as follows: […]
8. Pre-incubate the tube containing the incubation mix, also positive control and no cofactor tubes in the thermostatically controlled shaking water bath set at 37° C. for approx 5 min.
9. Add NADP to initiate reaction (75 μl to each 1.162.5 ml incubation mix, 12.5 μl to positive control tube and 5 μl to no substrate tube) and take first time point immediately. The PNA positive control, no cofactor control and no substrate tubes are incubated for the total incubation time.
10. Remove 100 μl aliquots up to 9 different sampling points from 0 to 60 min (usually 0, 3, 5, 10, 15, 20, 30, 45 & 60 min) and terminate reaction. Longer incubation times can be used, but, after 120 min the microsomes deteriorate. The reaction may be terminated by addition of organic solvent, acid or base. At the end of the incubation process the no cofactor and no substrate controls in a similar manner i.e. terminate with the same reagent.
11. Analyse samples (including no cofactor and no substrate control) by a specific assay for the substrate to determine the disappearance kinetics.
Data obtained using the procedure described above can be quantified in terms of the substrates in vitro intrinsic clearance (Clint). Providing that the substrate concentration is below Km, the metabolism should be 1st order giving a log-linear plot of substrate disappearance with time.
The gradient of this line is the first order rate constant (k) for the substrate disappearance and is determined by regression analysis. This rate constant can be converted to the half-life according to the following equation.
Alternatively the rate constant can be converted to an intrinsic clearance (Clint) according to the following equation:— Clint(μl/min/mg)=(k/protein concentration in incubation (mg/ml))*1000

T3 sequence (P08684 whole entry, canonical isoform): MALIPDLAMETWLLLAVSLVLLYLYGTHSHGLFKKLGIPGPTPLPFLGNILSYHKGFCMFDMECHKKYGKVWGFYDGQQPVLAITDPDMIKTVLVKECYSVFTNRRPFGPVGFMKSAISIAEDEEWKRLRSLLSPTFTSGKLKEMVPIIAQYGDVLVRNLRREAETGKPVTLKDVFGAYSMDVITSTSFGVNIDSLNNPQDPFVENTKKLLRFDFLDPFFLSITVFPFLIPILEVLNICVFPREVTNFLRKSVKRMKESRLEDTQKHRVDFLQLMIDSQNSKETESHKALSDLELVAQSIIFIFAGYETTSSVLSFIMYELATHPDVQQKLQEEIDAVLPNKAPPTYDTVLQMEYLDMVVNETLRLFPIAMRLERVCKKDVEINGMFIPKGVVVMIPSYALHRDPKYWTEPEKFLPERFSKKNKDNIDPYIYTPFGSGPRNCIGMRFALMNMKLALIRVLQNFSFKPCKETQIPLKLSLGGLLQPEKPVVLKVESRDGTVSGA
T2 sequence (P41968 whole entry): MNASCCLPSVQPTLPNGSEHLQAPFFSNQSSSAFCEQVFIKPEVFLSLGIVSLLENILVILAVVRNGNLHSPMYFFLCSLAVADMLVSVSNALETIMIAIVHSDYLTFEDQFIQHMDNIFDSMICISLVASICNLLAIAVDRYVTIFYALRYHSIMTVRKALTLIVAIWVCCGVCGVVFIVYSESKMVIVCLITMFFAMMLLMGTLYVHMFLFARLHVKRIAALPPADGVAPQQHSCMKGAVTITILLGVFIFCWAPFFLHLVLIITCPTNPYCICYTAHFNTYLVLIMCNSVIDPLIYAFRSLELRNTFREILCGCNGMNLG
Chain of MC4 receptor (P32245 whole entry): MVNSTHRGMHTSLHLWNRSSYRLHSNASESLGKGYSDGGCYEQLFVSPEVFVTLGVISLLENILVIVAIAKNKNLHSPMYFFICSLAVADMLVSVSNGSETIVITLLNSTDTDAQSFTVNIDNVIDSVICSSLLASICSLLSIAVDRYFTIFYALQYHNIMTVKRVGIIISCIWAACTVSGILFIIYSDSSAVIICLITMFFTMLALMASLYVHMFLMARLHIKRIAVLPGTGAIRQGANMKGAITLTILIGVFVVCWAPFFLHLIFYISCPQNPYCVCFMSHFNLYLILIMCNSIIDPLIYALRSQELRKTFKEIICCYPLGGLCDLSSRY
T1 sequence (P32245 whole entry): as above

## COc1ccc(C2CCCN(C(=O)[C@@H]3CN(c4ccc(C#N)nn4)C[C@H]3c3ccc(F)cc3F)CCN2C(C)=O)cc1 (mixture of isomers) [Example 1, 6-[(3S,4R)-3-{[4-acetyl-5-(4-methoxyphenyl)-1,4-diazocan-1-yl]carbonyl}-4-(2,4-difluorophenyl)pyrrolidin-1-yl]pyridazine-3-carbonitrile]
MC4 receptor
  EC50: 159 nM
MC4 receptor (MC4R)
  Ki: 2090 nM
MC3 receptor (MC3R)
  Ki: 2980 nM
CYP3A4
  inhibition at 3 µM: 63%
[1]
  microsomal CLint at 1 μM: 31 µL/min/mg

## CC(=O)N1CCN(C(=O)[C@@H]2CN(c3ccc(C#N)nn3)C[C@H]2c2ccc(F)cc2F)CCCC1c1ccccc1F (mixture of isomers) [Example 2]
MC4 receptor
  EC50: 19 nM
MC4 receptor (MC4R)
  Ki: 269 nM
MC3 receptor (MC3R)
  Ki: 375 nM
CYP3A4
  inhibition at 3 µM: 60%
[1]
  microsomal CLint at 1 μM: 39 µL/min/mg

## CC(=O)N1CCN(C(=O)[C@@H]2CN(c3cccnn3)C[C@H]2c2ccc(F)cc2F)CCC1c1ccccc1 (mixture of isomers) [Example 3]
MC4 receptor
  EC50: 42.4 nM
MC4 receptor (MC4R)
  Ki: 521 nM
MC3 receptor (MC3R)
  Ki: 3130 nM
CYP3A4
  inhibition at 3 µM: 30%
[1]
  microsomal CLint at 1 μM: 60 µL/min/mg

## COc1cccc(C2CCCN(C(=O)[C@@H]3CN(c4ccc(C#N)nn4)C[C@H]3c3ccc(F)cc3F)CCN2C(C)=O)c1 (mixture of isomers) [Example 4]
MC4 receptor
  EC50: 145 nM
MC4 receptor (MC4R)
  Ki: 555 nM
MC3 receptor (MC3R)
  Ki: 815 nM
CYP3A4
  inhibition at 3 µM: 36.5%
[1]
  microsomal CLint at 1 μM: 237 µL/min/mg

## COC(=O)N1CCN(C(=O)[C@@H]2CN(c3ccc(C#N)nn3)C[C@H]2c2ccc(F)cc2F)CCCC1c1ccc(OC)cc1 (mixture of isomers) [Example 48]
MC4 receptor
  EC50: 85.5 nM
MC4 receptor (MC4R)
  Ki: 585 nM
MC3 receptor (MC3R)
  Ki: 2660 nM
CYP3A4
  inhibition at 3 µM: 61.5%
[1]
  microsomal CLint at 1 μM: 55 µL/min/mg

## COC(=O)N1CCN(C(=O)[C@@H]2CN(c3cccnn3)C[C@H]2c2ccc(F)cc2F)CCC1c1ccccc1 (mixture of isomers) [Example 49]
MC4 receptor
  EC50: 21.1 nM
MC4 receptor (MC4R)
  Ki: 208 nM
MC3 receptor (MC3R)
  Ki: 2230 nM
CYP3A4
  inhibition at 3 µM: 42.5%
[1]
  microsomal CLint at 1 μM: 86 µL/min/mg

## COC(=O)N1CCN(C(=O)[C@@H]2CN(c3ccc(C#N)nn3)C[C@H]2c2ccc(F)cc2F)CCCC1c1cccc(OC)c1 (mixture of isomers) [Example 50]
MC4 receptor
  EC50: 74 nM
MC4 receptor (MC4R)
  Ki: 379 nM
MC3 receptor (MC3R)
  Ki: 1610 nM
CYP3A4
  inhibition at 3 µM: 76.5%
[1]
  microsomal CLint at 1 μM: 266 µL/min/mg

## CS(=O)(=O)N1CCN(C(=O)[C@@H]2CN(c3ccc(C#N)nn3)C[C@H]2c2ccc(C#N)cc2)CCCC1c1ccc(Cl)cc1 (mixture of isomers) [Example 87]
MC4 receptor
  EC50: 168 nM
MC4 receptor (MC4R)
  Ki: 927 nM
MC3 receptor (MC3R)
  Ki: 2150 nM
CYP3A4
  inhibition at 3 µM: 50%

## COC(=O)N1CCN(C(=O)[C@@H]2CN(c3cccnn3)C[C@H]2c2ccc(OC)cc2F)CCC1c1ccc(Cl)cc1 (mixture of isomers) [Example 95]
MC4 receptor
  EC50: 8.18 nM
MC3 receptor (MC3R)
  Ki: 4040 nM
CYP3A4
  inhibition at 3 µM: 41.9%
[1]
  microsomal CLint at 1 μM: 41.7 µL/min/mg

## COC(=O)N1CCN(C(=O)[C@@H]2CN(c3ccc(C#N)nn3)C[C@H]2c2ccc(F)cc2F)CCC[C@H]1c1ccc(Cl)cc1 [Example 55]
MC4 receptor
  EC50: 5.16 nM
MC3 receptor (MC3R)
  Ki: 154 nM
CYP3A4
  inhibition at 3 µM: 70.6%
[1]
  microsomal CLint at 1 μM: 9.75 µL/min/mg

## CC1(C(=O)N2CCN(C(=O)[C@@H]3CN(C(C)(C)C)C[C@H]3c3ccc(F)cc3F)CCC[C@H]2c2ccc(Cl)cc2)CC1 [Example 60, 1-{[(3S,4R)-1-tert-butyl-4-(2,4-difluorophenyl)pyrrolidin-3-yl]carbonyl}-5S-(4-chlorophenyl)-4-(1-methylcyclopropylcarbonyl)-1,4-diazocane]
MC4 receptor
  EC50: 4.81 nM
MC4 receptor (MC4R)
  Ki: 90.9 nM
CYP3A4
  inhibition at 3 µM: 44.9%
[1]
  microsomal CLint at 1 μM: 31.1 µL/min/mg

## COc1ccc([C@@H]2CN(C(C)(C)C)C[C@H]2C(=O)N2CCC[C@@H](c3ccc(Cl)cc3)N(C(=O)C3CC(F)(F)C3)CC2)c(F)c1 [Example 62]
MC4 receptor
  EC50: 18.4 nM
MC4 receptor (MC4R)
  Ki: 3660 nM
CYP3A4
  inhibition at 3 µM: 0%
